One experiment relates to E. coli K-12. Nature of the experiment: Planktonic antibiotic killing assay. In kind it is cell-based, Escherichia coli. Conditions: for fold more effective compared to ciprofloxacin: MMC 10 μg/mL vs ciprofloxacin 5 μg/mL. The protocol: (§1) In order to obtain exponential and mid-stationary phase cultures in LB, buffered LB or TSB, overnight cultures (16 h) were diluted 1:1000 in fresh medium and grown to the desired turbidity (i.e., a turbidity below 2 at 600 nm for exponential phase and a turbidity of 3 to 4 at 600 nm for mid-stationary phase). Late-stationary phase cultures in LB or buffered LB were obtained by growing overnight cultures (16 h). In order to obtain exponential and late-stationary phase cultures in M9-glucose, overnight cultures (16 h) were washed diluted 1:1000 in M9-glucose and grown for the desired period of time (i.e., a turbidity of 0.4 at 600 nm for exponential phase and 24 h of growth for late-stationary phase). Anaerobically grown cultures were maintained with ˜20% CO2, ˜79% N2, and ˜1% H2. In order to obtain rifampicin-induced persister cultures in buffered LB, overnight cultures (16 h) were diluted 1:1000 in fresh medium and grown to a turbidity of 0.8 at 600 nm. Cultures were exposed to rifampicin (100 μg/mL) for 30 min, centrifuged, and resuspended in fresh medium to remove the rifampicin.

For another experiment, the system named is E. coli O157:H7 (EHEC). As to the kind of experiment: Planktonic antibiotic killing assay. The note with it: MMC 10 μg/mL, 3 h; for cell viability after treatment: rich medium (buffered LB). Format: cell-based, Escherichia coli. The protocol:
as §1

Experiment [1] relates to E. coli K-12 ΔuvrA, ΔuvrB, and ΔuvrC mutants. Nature of the experiment: Planktonic killing of uvr deletion mutants. In kind it is cell-based, Escherichia coli. The note with it: mid-stationary phase, buffered LB. The protocol:
as §1

In another experiment the test system is P. aeruginosa PA14. As to the kind of experiment: Planktonic antibiotic killing assay. In kind it is cell-based, Pseudomonas aeruginosa. The note with it: mid-stationary phase, rich medium; MMC 10 μg/mL, 3 h. The protocol: as §1
Experiment [2] relates to clinical strains of P. aeruginosa. Nature of the experiment: Persister cell assay, multi-drug resistant clinical strains. Conditions: cisplatin 100 μg/mL. In kind it is cell-based, Pseudomonas aeruginosa. The protocol: For the persister cell assay of the pathogens, stationary-phase cells were used. Cultures of EHEC, P. aeruginosa, and S. aureus were prepared by a 1:1000 dilution of overnight grown cultures (LB medium for EHEC and P. aeruginosa, TSB for S. aureus) into fresh buffered LB medium for EHEC, M9-glucose for P. aeruginosa, and TSB for S. aureus and re-growing the cells to a turbidity of 3 to 4 at 600 nm for EHEC and S. aureus and growing for 24 h for P. aeruginosa. […]

“Also recorded” adds a separate entry of the source.

With `CO[C@@]12[C@H](COC(N)=O)C3=C(C(=O)C(C)=C(N)C3=O)N1C[C@@H]1N[C@@H]12` [MMC, mitomycin C], the survival result is “eradication beyond the limit of detection; also recorded: eradicated” in the experiment with E. coli K-12 (anaerobic, late-stationary phase cells in rich medium (LB)) and 0.0038±0.0005% with P. aeruginosa PA14. For the same molecule, the “susceptibility of exponential-phase cultures” value in the experiment on E. coli K-12 (exponential phase, M9-glucose) is recorded as “similarly susceptible”. In addition, the “fold more effective compared to ciprofloxacin” value is reported as 2,300 fold with E. coli K-12 (exponentially-growing cells, buffered LB, 3 h) and 150,000 fold in the experiment with E. coli K-12 (mid-stationary-phase cells, buffered LB, 3 h). Moreover, the “time course of killing (death curve)” value in the experiment with E. coli K-12 (late-stationary phase culture, buffered LB) is listed as “does not show the bi-phasic death curve”. For the same molecule, in the experiment on E. coli K-12 (late-stationary phase, M9-glucose, MMC 10, ciprofloxacin 5, gentamicin 10 μg/mL, 3 h), the “persistence (surviving population)” value was “eradication beyond the limit of detection; also recorded: eradicated cells”. Besides, the “effectiveness against rifampicin-induced persister cells” value in the experiment with E. coli K-12 (rifampicin pretreatment 100 μg/mL 30 min, buffered LB, MMC 10 μg/mL, ciprofloxacin 5 μg/mL, 3 h) is “highly effective”. Moreover, the “cell viability after treatment” value in the experiment on E. coli O157:H7 (EHEC) (exponential phase) and in the experiment on E. coli O157:H7 (EHEC) (mid-stationary phase) was “eradicating” throughout. Moreover, in the experiment with E. coli O157:H7 (EHEC) (late-stationary phase, M9-glucose, ciprofloxacin 5 μg/mL), the cells survived entry is given as “eradicated”. The “time of treatment to eradication (beyond the limit of detection)” value in experiment [1] was “less than 30 min”.

Consider `N.N.[Cl][Pt][Cl]` [cisplatin, cis-diamminodichloroplatinum(II)], for which the survival in experiment [2] (strain INP-37) is given as 0.05±0.06%; in experiment [2] (strain INP-57M), 0.01±0.00%; in experiment [2] (strain INP-64M) it was 0.02±0.00%; in experiment [2] (strain RME-101), 0.02±0.03%.
